From patent US4260745A, “3-Halo cephalosporins” (Eli Lilly and Company, priority 1979, dated 1981) come the findings set out here.

What all share (assay type): cell-based
In assay [1] the test system is Methicillin resistant Staphylococcus. In words: Gradient Plate technique, MIC. As to conditions: Staphylococcus; Clinical Isolate X400 (methicillin resistant); No Serum; read-out: Minimum Inhibitory Concentration.
In a further assay the test system is Klebsiella pneumoniae. In words: standard disc-plate method, zone of inhibition. The note with it: Table IV, read-out: Zone of Inhibition (diameter in mm). The text has this:
(§1) The in vitro antimicrobial activity of the 3-halo cephalosporins is illustrated by the data in the following tables. Table I contains the antimicrobial activity for 7-[2-(2-thienyl)acetamido]-3-chloro-3-cephem-4-carboxylic acid obtained in the standard Disc-plate method. The numerical values are the diameter in millimeters of the zones of inhibition observed with the named organisms.
(§2) In Table IV below, the in vitro antimicrobial activity of 7-[2-(2-thienyl)acetamido]-3-bromo-3-cephem-4-carboxylic acid is presented for several illustrative microorganisms. The data presented were obtained in the standard disc-plate method with the numerical values recording the diameter in millimeters of the zones of inhibition observed with the named microorganisms.

The test system of another assay is Mycobacterium avium. In words: standard disc-plate method, zone of inhibition. The note with it: Table IV, read-out: Zone of Inhibition (diameter in mm).
From the text: as §1, §2

In a further assay the test system is Proteus vulgaris. In words: standard disc-plate method, zone of inhibition. As to conditions: Table IV, read-out: Zone of Inhibition (diameter in mm).
From the text: as §1, §2

Each structure is given as a SMILES string.

For the molecule `O=C(Cc1cccs1)NC1C(=O)N2C(C(=O)O)=C(Br)CS[C@H]12` (stereo partly shown) [7-[2-(2-Thienyl)acetamido]-3-bromo-3-cephem-4-carboxylic acid], the MIC in assay [1] was above 20 µg/mL. Besides, the zone of inhibition at 10 µg/mL with Klebsiella pneumoniae (0.01 mg./ml.) was 11 mm; with Mycobacterium avium (0.01 mg./ml., hazy zone (h)), 33 mm; in the assay on Proteus vulgaris (0.01 mg./ml., hazy zone (h)), 11 mm. Further, the zone of inhibition at 100 µg/mL stood at 19 mm in the assay on Klebsiella pneumoniae (0.1 mg./ml.); 42 mm with Mycobacterium avium (0.1 mg./ml., hazy zone (h)); 20 mm with Proteus vulgaris (0.1 mg./ml.). Further, the zone of inhibition at 1000 µg/mL in the assay on Klebsiella pneumoniae (1.0 mg./ml.) amounted to 28 mm; in the assay with Mycobacterium avium (1.0 mg./ml.), 23 mm; with Proteus vulgaris (1.0 mg./ml.) it was 28 mm.
